# Experimental data reported in US20140328852A1, “IMMUNOGENIC GLUTEN PEPTIDES AND USES THEREOF” (UNIVERSIDAD DE VALLADOLID, priority 2011, published 2014).
# Assays:
# Format in all cases: cell-based, human
# [1] = tested on: dendritic cells derived from monocytes; experiment: Phenotypic maturation of monocyte-derived dendritic cells (flow cytometry of membrane markers); details: dendritic cells from healthy controls, peptide 100 μg/mL, 48 hours
# Procedure: FIG. 2. […] Shadowed histograms represent the expression of the co-stimulator markers (CD40, CD80, CD86) or activators (CD83) in dendritic cells. Empty histograms represent isotype controls. This experiment is representative of three independent experiments; each of them is performed by triplicate.
# (§1) Mononuclear cells from ABO-compatible peripheral blood were isolated by centrifugation on a density gradient, and magnetic beads with anti-CD14 antibodies to separate CD14+ monocytes, that were induced for 6 days to differentiate into immature dendritic cells by IL-4 and GM-CSF (confirmed by flow cytometry) were isolated too. These cells were first stimulated for 48 hours with the 8-mer peptide (100 μg/mL, 10 μg/mL, 1 μg/mL) and other known gliadin peptides: 19-mer (100 μg/mL) and 33-mer (100 μg/mL) and then a co-culture with autologous T lymphocytes was performed (population CD14-obtained above), in which dendritic cells act as antigen presenting cells. As negative and positive controls of stimulation, a CD14-cell culture without dendritic cells (basal), and CD14-cells stimulated with lipopolysaccharide (LPS) were used respectively. After 4 days, the cell proliferation rate was calculated according to the absorbance ratio of stimulated/unstimulated dendritic cells in co-culture with autologous T lymphocytes.
# [2] = tested on: dendritic cells derived from monocytes; experiment: Cytokine mRNA expression in stimulated monocyte-derived dendritic cells; details: dendritic cells from healthy donors, peptide 100 μg/ml, 48 hours
# autologous T lymphocytes = experiment: Proliferation of autologous T lymphocytes in co-culture with peptide-stimulated dendritic cells; details: for proliferative response of autologous T lymphocytes (in words): celiac HLA-DQ2+ and non-celiac HLA-DQ2− samples; for proliferation rate: 4 days co-culture
# Procedure: FIG. 4. […] The mean and standard deviation of an experiment performed in triplicate are shown, and which is representative of three independent experiments with similar results. Each experiment was performed with an untreated celiac patient with genotype HLA-DQ2^+ and parallel to a healthy non-celiac individual HLA-DQ2^− as a control (C).
# Monocyte-derived dendritic cells serve as antigen presenting cells. Stimulation experiments carried out in the present invention included a positive proliferation control (T lymphocytes cultured in the presence of monocyte-derived dendritic cells pre-activated in the presence of lipopolysaccharide, LPS) and two negative controls: CD14-fraction enriched with cultured T lymphocytes i) in basal medium and ii) in the presence of monocyte-derived dendritic cells unstimulated.
# as §1
# [3] = peptide 100 μg/ml, cells from celiac patients HLA-DQ2+, ratio stimulated/unstimulated dendritic cells
# [4] = peptide 100 μg/ml, cells from non-celiac individuals HLA-DQ2−, ratio stimulated/unstimulated dendritic cells
Substance,membrane expression of CD40 and CD80 markers [1],membrane expression of CD83 or CD86 [1],expression of IL-4 mRNA [2] [times],expression of IL-12p40 mRNA [2],proliferative response of autologous T lymphocytes (in words) (autologous T lymphocytes),proliferation rate (autologous T lymphocytes; [3]),proliferation rate (autologous T lymphocytes; [4]),"proliferation rate (autologous T lymphocytes; peptide 1 μg/ml, cells from celiac patients HLA-DQ2+)","proliferation rate (autologous T lymphocytes; peptide 1 μg/ml, cells from non-celiac individuals HLA-DQ2−)","proliferation rate (autologous T lymphocytes; peptide 10 μg/ml, cells from celiac patients HLA-DQ2+)","proliferation rate (autologous T lymphocytes; peptide 10 μg/ml, cells from non-celiac individuals HLA-DQ2−)"
19-mer: known gliadin peptide 19-mer (SEQ ID NO: 4) (LGQQQPFPPQQPYPQPQPF; listed as Triticum monococcum),did not affect,did not affect,7.7,0.4 times,did not induce proliferation,1.06±0.011,1.03±0.039,–,–,–,–
33-mer: known immunodominant α-gliadin peptide 33-mer (SEQ ID NO: 5) (LQLQPFPQPELPYPQPELPYPQPELPYPQPQPF; Gluten peptide 33-mer),did not affect,did not affect,0.001,inhibited,did not induce proliferation,1.04±0.005,1.04±0.018,–,–,–,–
8-mer: eight amino acid gliadin peptide (SEQ ID NO: 2) generated in the gut of celiac patients by bacterial proteases (FPLQPQQP; listed as Triticum aestivum),increased,not,79,0.4 times,induced a proliferative response,2.09±0.029,1.51±0.108,1.27±0.005,1.04±0.039,1.69±0.005,1.28±0.034
